“Also recorded” adds a separate entry of the source.

This is an account of results in US10421769B2, “Anticancer property studies of chiral palladium N-heterocyclic carbene complexes and process for preparation thereof” (Indian Institute of Technology Bombay, priority 2017, dated 2019).

The subject of one experiment is HeLa cells. The experiment is described as follows: Sulforhodamine B assay, proliferation of HeLa cells. The format is cell-based, human. The following applies: for IC50: HeLa cervical cancer cells, 24 h, SRB. On the procedure: (§1) The present invention further provides a Sulforhodamine B assay method for investigating the anti-cancer efficacies of the compounds of the present Pd—NHC series on MCF-7, HeLa, A549, B16-F10 and EMT6/AR1 cancer cell lines and also for a comparative study on normal skin cell line L929 and normal epithelial breast cells MCF10A. The said Sulforhodamine B assay is conducted as per reported method (Skehan et al., J. Natl. Cancer Inst. 1990, 82, 1107).
Experiment: The anti-proliferative activity of the present palladium N-heterocyclic carbene complexes on two different cancer cell lines MCF-7 and HeLa is tested using Sulforhodamine B assay to reveal their anti-tumor properties. The evaluation of growth inhibition of these complexes is done from their IC50 values for the inhibition of cell growth. The IC50 values are compared with Cisplatin to determine any increase in efficacy.
The seeded cells in 96-well plates are incubated with the complex for 24 h and the assay is performed.
The data obtained is graphically represented in accompanying FIG. 2.

The subject of the next experiment is EMT6/AR1 cells. The experiment in a line: Sulforhodamine B assay, multidrug resistant EMT6/AR1 cells. The conditions noted are these: EMT6/AR1 multidrug resistant mammary cancer cells, SRB. Format: cell-based, mouse. On the procedure:
as §1
Background: The SRB assay estimates cell density from bound dye.

The next experiment deals with γ-H2AX in MCF-7 cells. The experiment is described as follows: Immunofluorescence microscopy for DNA damage (γ-H2AX). The format is cell-based, human. The following applies: MCF-7, 4 and 8 μM, 36 h; cisplatin 4 μM as comparison. On the procedure: Experiment: MCF-7 (5×10^4 cells/well) cells were seeded on glass cover slip in a 24 well cell culture plate. After the cell were attached, they were incubated with 4 and 8 μM (1R,2R,5S)-1c and 4 μM cisplatin for 36 h, fixed with 3.7% formaldehyde and processed for immunostaining. After fixing, cells were blocked with 2% BSA and incubated with anti-γ H2AX IgG (1:200) for 2 h at 37° C. followed by Alexa flour 555 goat anti-rabbit secondary IgG (1:400) for 1 h at 37° C. Hoechst 33258 was used to stain the DNA. Immunofluorescence imaging was performed using iPlan-apochromat 40×/1.3 NA oil immersion objective in Confocal Laser Scanning microscope. Image J software was used to calculate the fluorescence intensity. 500 cells were scored in each case.

The test system of experiment [1] is intracellular ROS in MCF-7 cells. The experiment in a line: Reactive oxygen species (ROS) assay using H2DCFDA, flow cytometry. Format: cell-based, human. The following applies: 24 h. On the procedure:
Experiment: Reactive oxygen species (ROS) production in cells when treated with (1R,2R,5S)-1c, was estimated by ROS assay using 2′,7′-dichlorodihydrofluorescein diacetate (H2DCFDA). MCF-7 cells (5 mL) were seeded in 60 mm cell culture dishes at a density of 1.5×10^5 cells/mL. After cell attachment, they were incubated with 4 and 8 μM (1R,2R,5S)-1c for 24 h. Cells treated with 30 μM hydrogen peroxide was used as a positive control. Following 24 h of incubation, the cells were processed and analyzed using flow cytometry. The percentage of DCFH-DA positive MCF-7 cells in the absence and presence 4 and 8 μM (1R,2R,5S)-1c was determined by flow cytometry. 30 μM H2O2 was used as a positive control. Data are average of three independent set of experiments and ±indicates S.D.
For orientation: Flow cytometry measures light scatter and fluorescence of single cells or particles in a stream.

Consider “trans-[1-(1R)-menthyl-4-(ethyl)-1,2,4-triazol-5-ylidene]2Pd(OCOCF3)2 [(1R,2R,5S)-1c]”, for which the “IC50 of Cisplatin against HeLa as multiple of IC50 of the complex” value in the experiment on HeLa cells (HeLa) was “around 4 times”. For the same substance, the IC50 (in general, the concentration that inhibits the measured activity by half) in the experiment on HeLa cells (listed as drawing 41) turned out to be 2.3 ± 1 µM; in the experiment with HeLa cells (listed as drawing 48) it was 2.3 ± 1 µM; in the experiment with EMT6/AR1 cells, 4.8 ± 0.3 µM. Also, the “DNA damage, γ-H2AX immunostaining (in words)” value in the experiment on γ-H2AX in MCF-7 cells was “stronger DNA damaging effect on MCF-7 cells than cisplatin; also recorded: more DNA damage than compared to Cisplatin; also recorded: causes DNA damage in MCF-7 cells”. In addition, the “% of DCFH-DA positive cells” value was determined as 49 ± 11% in experiment [1] (MCF-7, 4 μM) and 74 ± 1% in experiment [1] (MCF-7, 8 μM). The “Intracellular ROS generation (in words)” value in experiment [1] (MCF-7, 4 and 8 μM) is reported as “leads ROS production in cells; also recorded: ROS is generated in MCF-7 cells”.
